Data reported in patent US20120269739A1, “COMPOSITION, USE, AND PRESERVATION METHOD” (L'OREAL, priority 2009, published 2012).

Experiments:
[1] = system: Aspergillus niger (An) ATCC 6275; experiment: Challenge Test (artificial contamination) of cosmetic formula; type: cell-based; settings: 22° C., chlorhexidine digluconate 0.3%, gingerone 2%
Text: (§1) 5 pure microorganism cultures are used.

[2] = system: Candida albicans (Ca) ATCC 10231; experiment: as above; type: cell-based; settings: 22° C., chlorhexidine digluconate 0.3%, gingerone 2%; for Log reduction number after 7 days of contact, relative to the control, Candida albicans: Amt weight %: sodium benzoate 0.6%
Text: as §1

[3] = system: Enterococcus faecalis (Ef) ATCC 33186; experiment: as above; type: cell-based; settings: 22° C., chlorhexidine digluconate 0.3%, gingerone 2%
Text: as §1

[4] = system: Escherichia coli (Ec) ATCC 8739; experiment: as above; type: cell-based; settings: 22° C., chlorhexidine digluconate 0.3%, gingerone 2%
Text: as §1

[5] = system: Enterococcus faecalis (ATCC 33186); experiment: Action kinetics in broth; type: cell-based; settings: TS broth pH 5.2±0.3, 35° C., gingerone 2%, sodium benzoate 3.3%, chlorhexidine digluconate 2.2%
Protocol: (§2) The object of this example is to distinguish a compound according to the invention (gingerone) from the preserving agents conventionally used for protecting cosmetic formulations against microbial contamination, as regards the action kinetics.
(§3) The solutions are prepared in Trypto-casein-soya (TS) broth for the bacteria and in Sabouraud broth for the yeast. These solutions are adjusted to pH 5.2±0.3.
(§4) For each microbial solution, a growth control consisting of the appropriate culture medium alone is prepared.
(§5) The solutions in TS broth (36 ml) are inoculated separately with each of the bacteria (4 ml of microbial suspension) to a final content of 10^6 cfu/ml of mixture.
(§6) The inoculated samples are then placed in an incubator-agitator at 35° C.±2° C. Samples are taken after 6 hours, 24 hours, 48 hours, 72 hours and 7 days. Decimal dilutions are then prepared in Eugon LT100 broth. These dilutions are left for 30 minutes±15 minutes at 25° C. in order to neutralize the preserving agents, and are then double-seeded on the surface of Petri dishes containing Eugon LT100 agar.
(§7) The Petri dishes are then incubated in an oven at 35° C.±2° C. for a variable time depending on the strain concerned: • 48 hours; S. aureus; • 5 days: E. faecalis and C. albicans.
(§8) The results are expressed for each solution, each strain and each contact time as the number of cfu/ml of stock solution.

[6] = system: Staphylococcus aureus (ATCC 6538); experiment: Action kinetics in broth; type: cell-based; settings: TS broth pH 5.2±0.3, 35° C., gingerone 2%, sodium benzoate 3.3%, chlorhexidine digluconate 2.2%
Protocol: as §2, §3, §4, §5, §6, §7, §8

[7] = system: Candida albicans (ATCC 10231); experiment: Action kinetics in broth; type: cell-based; settings: Sabouraud broth pH 5.2±0.3, 35° C., gingerone 2%, sodium benzoate 3.3%, chlorhexidine digluconate 2.2%
Protocol: as §2, §3, §4
The solutions in Sabouraud broth (36 ml) are inoculated with the yeast (4 ml of suspension) to a final content of 10^6 cfu/ml.
as §6, §7, §8

[8] = system: collection microbial strains (bacteria, yeasts and moulds); experiment: Challenge Test, overall finding over strains and formulas; type: cell-based; settings: three formulas, five strains, gingerone 2%
bacteria and yeast = experiment: Action kinetics, overall conclusion; type: cell-based; settings: gingerone 2%; in particular on the bacteria
Protocol: as §2, §6

[9] = system: Pseudomonas aeruginosa (Pa) ATCC 19429; experiment: Challenge Test (artificial contamination) of cosmetic formula; settings: 22° C., chlorhexidine digluconate 0.3%, gingerone 2%
Protocol: The antimicrobial efficacy of a compound of formula (I) was evaluated via the Challenge Test or artificial contamination method.
The method of the challenge test consists of an artificial contamination of the sample with collection microbial strains (bacteria, yeasts and moulds) and evaluation of the number of revivable microorganisms seven days after the inoculation.
The gram-negative bacteria (Escherichia coli and Pseudomonas aeruginosa), gram-positive bacteria (Enterococcus faecalis), yeast (Candida albicans) and mould (Aspergillus niger) are seeded in the subculturing medium, respectively, the day before the inoculation for the bacteria and the yeast, and five days before the inoculation for the mould.
After homogenizing the microbial suspension, 0.2 ml of inoculum is introduced into each pill bottle (the suspensions are used pure: between 1×10^8 and 3×10^8 cfu per ml) and the microbial suspension in the 20 g of product (=cosmetic formula) is homogenized thoroughly using a spatula.
The content of microorganisms present in the product corresponds after homogenization to a concentration of 10^6 microorganisms per gram of product, i.e. inoculation to 1% of an inoculum containing 10^8 microorganisms per ml.
After 7 days of contact time between the microorganisms and the product at 22° C.±2° C. and in darkness, decimal dilutions are performed and the number of revivable microorganisms remaining in the product is counted.

[10] = 1st formula O/W emulsion, Amt weight %: phenoxyethanol 1%, sodium benzoate 0.6%
[11] = 2nd formula lotion (pH 7 ± 0.2), Amt weight %: sodium benzoate 0.6%, phenoxyethanol 1%
[12] = 3rd formula O/W emulsion, Amt weight %: sodium benzoate 0.6%

## COc1cc(CCC(C)=O)ccc1O [Gingerone, gingerone]
[1]; [10]
  Log reduction number after 7 days of contact, relative to the control, A. niger: >4 Log
[1]; [11]
  Log reduction number after 7 days of contact, relative to the control, A. niger: >4 Log
[1]; [12]
  Log reduction number after 7 days of contact, relative to the control, A. niger: 0.6 Log
[2]; [10]
  Log reduction number after 7 days of contact, relative to the control, C. albicans: >4 Log
[2]; 2nd formula lotion (pH 7 ± 0.2), phenoxyethanol 1%
  Log reduction number after 7 days of contact, relative to the control, Candida albicans: >3 Log
[2]; 3rd formula O/W emulsion
  Log reduction number after 7 days of contact, relative to the control, Candida albicans: >4 Log
[3]; [10]
  Log reduction number after 7 days of contact, relative to the control, E. faecalis: >4 Log
[3]; [11]
  Log reduction number after 7 days of contact, relative to the control, E. faecalis: >0.5 Log
[3]; [12]
  Log reduction number after 7 days of contact, relative to the control, E. faecalis: >4 Log
[4]; [10]
  Log reduction number after 7 days of contact, relative to the control, E. coli: >4 Log
[4]; [11]
  Log reduction number after 7 days of contact, relative to the control, E. coli: >4 Log
[4]; [12]
  Log reduction number after 7 days of contact, relative to the control, E. coli: >4 Log
[5]; contact time 0 hours
  Number of cfu counted after strain/solution contact time, Enterococcus faecalis: 2.5 × 10^6 cfu/ml
[5]; contact time 6 hours
  Number of cfu counted after strain/solution contact time, Enterococcus faecalis: 4.4 × 10^5 cfu/ml
[5]; contact time 24 hours
  Number of cfu counted after strain/solution contact time, Enterococcus faecalis: 1.2 × 10^4 cfu/ml
[5]; contact time 48 hours
  Number of cfu counted after strain/solution contact time, Enterococcus faecalis: 6.3 × 10^2 cfu/ml
[5]; contact time 72 hours
  Number of cfu counted after strain/solution contact time, Enterococcus faecalis: 80 cfu/ml
[5]; contact time 168 hours
  Number of cfu counted after strain/solution contact time, Enterococcus faecalis: <10 cfu/ml
[6]; contact time 0 hours, first series
  Number of cfu counted after strain/solution contact time, Staphylococcus aureus: 1.7 × 10^6 cfu/ml
[6]; contact time 0 hours, second series of Table 1
  Number of cfu counted after strain/solution contact time, Staphylococcus aureus: 2.5 × 10^6 cfu/ml
[6]; contact time 6 hours, first series
  Number of cfu counted after strain/solution contact time, Staphylococcus aureus: 1.2 × 10^6 cfu/ml
[6]; contact time 6 hours, second series of Table 1
  Number of cfu counted after strain/solution contact time, Staphylococcus aureus: 1.2 × 10^6 cfu/ml
[6]; contact time 24 hours, first series
  Number of cfu counted after strain/solution contact time, Staphylococcus aureus: 1.7 × 10^5 cfu/ml
[6]; contact time 24 hours, second series of Table 1
  Number of cfu counted after strain/solution contact time, Staphylococcus aureus: 1.6 × 10^5 cfu/ml
[6]; contact time 48 hours, first series
  Number of cfu counted after strain/solution contact time, Staphylococcus aureus: 8.1 × 10^3 cfu/ml
[6]; contact time 48 hours, second series of Table 1
  Number of cfu counted after strain/solution contact time, Staphylococcus aureus: 9.6 × 10^3 cfu/ml
[6]; contact time 72 hours, first series
  Number of cfu counted after strain/solution contact time, Staphylococcus aureus: 40 cfu/ml
[6]; contact time 72 hours, second series of Table 1
  Number of cfu counted after strain/solution contact time, Staphylococcus aureus: 1.3 × 10^2 cfu/ml
[6]; contact time 168 hours, first series
  Number of cfu counted after strain/solution contact time, Staphylococcus aureus: <100 cfu/ml
[6]; contact time 168 hours, second series of Table 1
  Number of cfu counted after strain/solution contact time, Staphylococcus aureus: <10 cfu/ml
[7]; contact time 0 hours
  Number of cfu counted after strain/solution contact time, Candida albicans: 2.9 × 10^6 cfu/ml
[7]; contact time 6 hours
  Number of cfu counted after strain/solution contact time, Candida albicans: 2.9 × 10^2 cfu/ml
[7]; contact time 24 hours
  Number of cfu counted after strain/solution contact time, Candida albicans: <10 cfu/ml
[7]; contact time 48 hours
  Number of cfu counted after strain/solution contact time, Candida albicans: <10 cfu/ml
[7]; contact time 72 hours
  Number of cfu counted after strain/solution contact time, Candida albicans: <10 cfu/ml
[7]; contact time 168 hours
  Number of cfu counted after strain/solution contact time, Candida albicans: <10 cfu/ml
[8]
  antimicrobial efficacy across strains and formulatory supports: efficient irrespective of the strain and of the support
Bacteria and yeast
  action kinetics in comparison with conventional preserving agents: much more slowly
[9]; [10]
  Log reduction number after 7 days of contact, relative to the control, P. aeruginosa: >4 Log
[9]; [11]
  Log reduction number after 7 days of contact, relative to the control, P. aeruginosa: >3 Log
[9]; [12]
  Log reduction number after 7 days of contact, relative to the control, P. aeruginosa: >4 Log
